Reference: US7595401B2, “Therapeutic compounds and their use in cancer” (Myriad Pharmaceuticals, Inc., priority 2006, dated 2009)

Molecular target: purified human Hsp90
Experiment: Binding Assay: fluorescence polarization with BODIPY-labeled geldanamycin
Conditions: BODIPY-GM 10 nM, Hsp90 30 nM
In short: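 Fluorescence polarization competition with BODIPY-geldanamycin (10 nM final) and human Hsp90 (30 nM final) in HEPES-KOH pH 7.3 buffer with molybdate, NP-40, DTT; 2% DMSO, overnight at room temperature. Read 485/530 nm; percent inhibition from mP normalized to DMSO controls, fluorescent-compound points excluded.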

Row | SMILES | IC50 | % Inhibition at 5 μM Compound Concentration
1 | Nc1ncnc2c1nc(Sc1cc3c(cc1Br)OCO3)n2CCC(N)C1CCCCC1 (stereo not shown) [Example 690, 9-(3-Amino-3-cyclohexylpropyl)-8-[(6-bromo-1,3-benzodioxol-5-yl)thio]-9H-purin-6-amine] | 290 nM | 
2 | Nc1ncn(CCC2CCN(C=O)CC2)c2nc(Sc3ncccc3Br)nc1-2 [Example 551, 4-(2-{6-Amino-8-[(3-bromopyridin-2-yl)thio]-3 H-purin-3-yl}ethyl)piperidine-1-carbaldehyde] |  | 0.00%
3 | COc1ccc(OC)c(Sc2nc3c(N)ncnc3n2CCc2cccc3ccccc23)c1 [Example 67, 8-(2,5-Dimethoxy-phenylsulfanyl)-9-(2-naphthalen-1-yl-ethyl)-9H-purin-6-ylamine] | 1500 nM | 56%
4 | COc1ccc(OC)c(Sc2nc3c(N)ncnc3n2CCc2ccc(Cl)cc2F)c1 [Example 97, 9-[2-(4-Chloro-2-fluoro-phenyl)-ethyl]-8-(2,5-dimethoxy-phenylsulfanyl)-9H-purin-6-ylamine] | 450 nM | 
5 | Nc1ncnc2c1nc(Sc1cc3c(cc1Br)OCCO3)n2CCc1ccccc1Cl [Example 233, 8-[(7-Bromo-2,3-dihydro-1,4-benzodioxin-6-yl)thio]-9-[2-(2-chlorophenyl)ethyl]-9H-purin-6-amine] | 500 nM | 
6 | CC(=O)N1CCC(CCn2c(Sc3nc4cc(Cl)ccc4s3)nc3c(N)ncnc32)CC1 [Example 656, 9-[2-(1-Acetylpiperidin-4-yl)ethyl]-8-[(5-chloro-1,3-benzothiazol-2-yl)thio]-9H-purin-6-amine] | > 5000 nM | 
7 | CC(C)(C)OC(=O)N1CC(CCn2c(Sc3cc4c(cc3Br)OCO4)nc3c(N)ncnc32)C1 [Example 458, tert-Butyl 3-(2-{6-amino-8-[(6-bromo-1,3-benzodioxol-5-yl)thio]-9H-purin-9-yl}ethyl)azetidine-1-carboxylate] | 380 nM | 
8 | Nc1ncnc2c1nc(Sc1cc3c(cc1Br)OCO3)n2CCC1CCCNC1 (stereo not shown) [Example 466, 8-[(6-Bromo-1,3-benzodioxol-5-yl)thio]-9-(2-piperidin-3-ylethyl)-9H-purin-6-amine] | 60 nM | 
9 | Nc1ncnc2c1nc(Sc1cc3c(cc1Br)OCO3)n2CCC1CCN(C(=O)C2CC2(F)F)CC1 (stereo not shown) [Example 524, 8-[(6-Bromo-1,3-benzodioxol-5-yl)thio]-9-(2-{1-[(2,2-difluorocyclopropyl)carbonyl]piperidin-4-yl}ethyl)-9 H-purin-6-amine] | 100 nM | 
10 | COc1ccc(OC)c(Sc2nc3c(N)ncn(CCc4ccc(F)cc4Cl)c-3n2)c1 [Example 140, 3-[2-(2-chloro-4-fluoro-phenyl)-ethyl]-8-(2,5-dimethoxy-phenylsulfanyl)-3H-purin-6-ylamine] |  | 0%
11 | COc1cc(Sc2nc3c(N)nc(F)nc3n2CCc2c(Cl)cccc2Cl)c(Cl)c(OC)c1OC [Example 239, 8-[(2-Chloro-3,4,5-trimethoxyphenyl)thio]-9-[2-(2,6-dichlorophenyl)ethyl]-2-fluoro-9H-purin-6-amine] | > 25000 nM | 
12 | COc1ccc(OC)c(Sc2nc3c(N)ncnc3n2CCc2ccccc2Cl)c1 [Example 25, 9-[2-(2-Chloro-phenyl)-ethyl]-8-(2,5-dimethoxy-phenylsulfanyl)-9H-purin-6-ylamine] | 41 nM | 
13 | Nc1ncnc2c1nc(Sc1cc3c(cc1Br)OCO3)n2CCN1CCN(C2CCCC2)CC1 [Example 632, 8-[(6-Bromo-1,3-benzodioxol-5-yl)thio]-9-[2-(4-cyclopentylpiperazin-1-yl)ethyl]-9 H-purin-6-amine] | > 3000 nM | 
14 | Nc1ncnc2c1nc(Sc1cc3c(cc1Br)OCO3)n2CCC1CCCCC1 [Example 173, 8-(6-Bromo-benzo[1,3]dioxol-5-ylsulfanyl)-9-(2-cyclohexyl-ethyl)-9H-purin-6-ylamine] | > 25000 nM | 44%
15 | COc1cc(Sc2nc3c(N)ncnc3n2CCc2ccccc2Cl)c(OC)cc1Cl [Example 260, 8-[(4-Chloro-2,5-dimethoxyphenyl)thio]-9-[2-(2-chlorophenyl)ethyl]-9H-purin-6-amine] | 1500 nM | 
16 | COc1ccc(OC)c(Sc2nc3c(N)ncn(CCc4cc(F)cc(F)c4)c-3n2)c1 [Example 144, 3-[2-(3,5-difluoro-phenyl)-ethyl]-8-(2,5-dimethoxy-phenylsulfanyl)-3H-purin-6-ylamine] |  | 0%
17 | CC(C)(C)OC(=O)NC(CCn1cnc(N)c2nc(Sc3cc4c(cc3Br)OCO4)nc1-2)C1CCCC1 (stereo not shown) [Example 680, {3-[6-Amino-8-(6-bromo-benzo[1,3]dioxol-5-ylsulfanyl)-purin-3-yl]-1-cyclopentyl-propyl}-carbamic acid tert-butyl ester] |  | 14%
18 | CN(C)c1ccc(CCn2c(Sc3cc4c(cc3Br)OCO4)nc3c(N)ncnc32)cc1 [Example 187, 8-(6-Bromo-benzo[1,3]dioxol-5-ylsulfanyl)-9-[2-(4-dimethylamino-phenyl)-ethyl]-9H-purin-6-ylamine] | > 2500 nM | 

Row | SMILES | IC50 | % Inhibition at 5 μM Compound Concentration
19 | COc1ccc(OC)c(Sc2nc3c(N)ncn(CCc4ccc(S(=O)(=O)NC(C)(C)C)cc4)c-3n2)c1 [Example 276, 4-(2-{6-Amino-8-[(2,5-dimethoxyphenyl)thio]-3H-purin-3-yl}ethyl)-N-(tert-butyl)benzenesulfonamide] |  | 0.0%
20 | CC(C)(C)OC(=O)N1CCC(CCn2c(Sc3cc4c(cc3Br)OCO4)nc3c(N)ncnc32)CC1 [Example 341, tert-Butyl 4-(2-{6-amino-8-[(6-bromo-1,3-benzodioxol-5-yl)thio]-9H-purin-9-yl}ethyl)piperidine-1-carboxylate] | 200 nM | 
21 | CC(C)(C)OC(=O)NC(CCn1cnc(N)c2nc(Sc3cc4c(cc3Br)OCO4)nc1-2)C1CCOCC1 (stereo not shown) [Example 683, [3-[6-Amino-8-(6-bromo-benzo[1,3]dioxol-5-ylsulfanyl)-9H-purin-3-yl]-1-(tetrahydro-pyran-4-yl)-propyl]-carbamic acid tert-butyl ester] |  | 5%
22 | Nc1ncnc2c1nc(Sc1cc3c(cc1Br)OCO3)n2CC[C@@H]1CCCCN1 [Example 477, 8-[(6-Bromo-1,3-benzodioxol-5-yl)thio]-9-{2-[(2S)-piperidin-2-yl]ethyl}-9 H-purin-6-amine] | 467 nM | 
23 | CCOc1ccc(OCC)c(Sc2nc3c(N)ncnc3n2CCC2CCN(C(=O)OC(C)(C)C)CC2)c1 [Example 362, tert-Butyl 4-(2-{6-amino-8-[(2,5-diethoxyphenyl)thio]-9H-purin-9-yl}ethyl)piperidine-1-carboxylate] | > 25000 nM | 
24 | Nc1ncnc2c1nc(Sc1cc3c(cc1Br)OCO3)n2CCC1CCOCC1 [Example 353, 8-[(6-Bromo-1,3-benzodioxol-5-yl)thio]-9-[2-(tetrahydro-2H-pyran-4-yl)ethyl]-9H-purin-6-amine] | 57 nM | 
25 | Nc1ncnc2c1nc(Sc1cc3c(cc1Br)OCO3)n2CCc1c(Cl)cccc1Cl [Example 128, 8-(6-Bromo-benzo[1,3]dioxol-5-ylsulfanyl)-9-[2-(2,6-dichloro-phenyl)-ethyl]-9H-purin-6-ylamine] | 66 nM | 
26 | CC(=O)N1CCC(CCn2cnc(N)c3nc(Sc4cc5c(cc4Br)OCO5)nc2-3)CC1 [Example 365, 3-[2-(1-Acetylpiperidin-4-yl)ethyl]-8-[(6-bromo-1,3-benzodioxol-5-yl)thio]-3H-purin-6-amine] |  | 31%
27 | C[C@@H](N)C(=O)N1CCCC(CCn2c(Sc3cc4c(cc3Br)OCO4)nc3c(N)ncnc32)C1 (stereo partly drawn) [Example 743, 9-(2-{1-[(2R)-2-Aminopropanoyl]piperidin-3-yl}ethyl)-8-[(6-bromo-1,3-benzodioxol-5-yl)thio]-9H-purin-6-amine] | 40 nM | 
28 | Nc1ncn(CCc2ccccc2)c2nc(Sc3ccc(NC=O)c(O)c3)nc1-2 [Example 268, N-(4-{[6-Amino-3-(2-phenylethyl)-3H-purin-8-yl]thio}-2-hydroxyphenyl)formamide] |  | 7.0%
29 | COc1c(Sc2nc3c(N)ncnc3n2CCC2CCN(C=O)CC2)cc(C)c2c1CCC2 [Example 556, 4-(2-{6-Amino-8-[(4-methoxy-7-methyl-2,3-dihydro-1 H-inden-5-yl)thio]-9 H-purin-9-yl}ethyl)piperidine-1-carbaldehyde] | 2000 nM | 
30 | C[C@H](NC(=O)OC(C)(C)C)C(=O)N1CCC(CCn2c(Sc3cc4c(cc3Br)OCO4)nc3c(N)ncnc32)CC1 [Example 693, [(S)-2-(4-{2-[6-Amino-8-(6-bromo-benzo[1,3]dioxol-5-ylsulfanyl) -purin-9-yl]-ethyl}-piperidin-1-yl)-1-methyl-2-oxo-ethyl]-carbamic acid tert-butyl ester] | 59 nM | 
31 | Nc1ncn(CCC2CCCN(S(=O)(=O)C(F)(F)F)C2)c2nc(Sc3cc4c(cc3Br)OCO4)nc1-2 (stereo not shown) [Example 403, 8-[(6-Bromo-1,3-benzodioxol-5-yl)thio]-3-(2-{1-[(trifluoromethyl)sulfonyl]piperidin-3-yl}ethyl)-3H-purin-6-amine] |  | 14%
32 | COc1cc(Sc2nc3c(N)ncnc3n2CCC2CCN(C(C)=O)CC2)c(OC)cc1Cl [Example 563, 9-[2-(1-Acetylpiperidin-4-yl)ethyl]-8-[(4-cloro-2,5-dimethoxyphenyl)thio]-9 H-purin-6-amine] | > 5000 nM | 
33 | COc1ccc(OC)c(Sc2nc3c(N)ncn(CCc4ccc(NC(=O)OC(C)(C)C)cc4)c-3n2)c1 [Example 215, (4-{2-[6-amino-8-(2,5-dimethoxy-phenylsulfanyl)-purin-3-yl]-ethyl}-phenyl)-carbamic acid tert-butyl ester] |  | 0%
34 | Nc1ncn(CCc2cccc(C(F)(F)F)c2)c2nc(Sc3cc4c(cc3Br)OCO4)nc1-2 [Example 166, 8-(6-Bromo-benzo[1,3]dioxol-5-ylsulfanyl)-3-[2-(3-trifluoromethyl-phenyl)-ethyl]-3H-purin-6-ylamine] |  | 0%
35 | COc1ccc(OC)c(Sc2nc3c(N)ncnc3n2CCc2ccc(F)cc2)c1 [Example 9, 8-(2,5-Dimethoxy-phenylsulfanyl)-9-[2-(4-fluoro-phenyl)-ethyl]-9H-purin-6-ylamine] | 1000 nM | 
